The values that follow come from patent US20220105051A1, “COMPOUNDS FOR INCREASING MHC-I EXPRESSION AND MODULATING HISTONE DEACETYLASE ACTIVITY” (Cava Healthcare Inc., priority 2019, published 2022).

Entries after “also recorded” stand apart in the source; their conditions may differ.

The target of one test is T1, HDAC6 (Homo sapiens, UniProt Q9UBN7).
T1 construct: purchased BPS Biosciences
T1 sequence (Q9UBN7 1-1215): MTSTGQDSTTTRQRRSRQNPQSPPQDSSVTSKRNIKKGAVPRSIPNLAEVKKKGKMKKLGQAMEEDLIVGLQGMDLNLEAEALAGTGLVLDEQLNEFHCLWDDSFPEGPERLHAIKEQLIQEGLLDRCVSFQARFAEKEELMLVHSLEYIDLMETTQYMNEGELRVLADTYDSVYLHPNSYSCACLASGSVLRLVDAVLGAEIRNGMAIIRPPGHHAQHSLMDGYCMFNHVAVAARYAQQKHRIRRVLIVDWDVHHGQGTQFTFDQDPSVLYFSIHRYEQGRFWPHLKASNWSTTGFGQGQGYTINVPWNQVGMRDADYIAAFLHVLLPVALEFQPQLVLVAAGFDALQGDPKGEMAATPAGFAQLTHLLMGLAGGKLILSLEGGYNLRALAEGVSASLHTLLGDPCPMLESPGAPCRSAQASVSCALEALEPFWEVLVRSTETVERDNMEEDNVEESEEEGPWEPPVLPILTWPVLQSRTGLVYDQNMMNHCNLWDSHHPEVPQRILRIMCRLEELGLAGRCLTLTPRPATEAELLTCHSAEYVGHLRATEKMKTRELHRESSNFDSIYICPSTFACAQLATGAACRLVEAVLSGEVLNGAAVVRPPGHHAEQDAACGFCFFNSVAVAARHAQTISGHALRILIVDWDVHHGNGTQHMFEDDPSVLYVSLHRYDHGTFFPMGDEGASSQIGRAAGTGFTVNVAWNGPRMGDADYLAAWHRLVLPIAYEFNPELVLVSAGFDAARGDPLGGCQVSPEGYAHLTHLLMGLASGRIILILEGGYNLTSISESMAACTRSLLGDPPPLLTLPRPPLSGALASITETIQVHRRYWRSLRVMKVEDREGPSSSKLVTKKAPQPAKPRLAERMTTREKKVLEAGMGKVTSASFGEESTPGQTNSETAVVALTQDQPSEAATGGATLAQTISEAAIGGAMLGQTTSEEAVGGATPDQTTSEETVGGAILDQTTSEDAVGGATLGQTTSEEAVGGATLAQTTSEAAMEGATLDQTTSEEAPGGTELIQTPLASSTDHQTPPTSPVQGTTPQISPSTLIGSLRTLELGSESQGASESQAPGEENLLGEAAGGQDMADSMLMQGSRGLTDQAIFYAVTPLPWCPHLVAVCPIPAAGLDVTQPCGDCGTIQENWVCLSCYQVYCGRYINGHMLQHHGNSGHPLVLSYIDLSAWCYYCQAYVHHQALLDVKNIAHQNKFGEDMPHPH
Kind of test: Individualized HDAC assay, HDAC6. Format: biochemical. The following applies: purified enzyme, 5 to 0.02 μM. The procedure: (§1) The activity of the curcuphenol analogues was assessed with purified HDAC enzymes from all classes I, II, and IV, as well as a select member of HDAC class III (SIRT1). HDACs 1-9 and SIRT1 were evaluated using HDAC Fluorogenic Assay Kits (BPS Biosciences). All assays were completed in black-sided clear-bottom 96 well plates (PerkinElmer), and all treatments were plated in triplicates. Treatment started at 5 μM and was two-fold diluted to a concentration 0.02 μM. The assays were measured using the Synergy HI hybrid reader (BioTek) and Gen5 software (BioTek), excitation was set to 360 nm and detection was measured at 450 nm with a gain of 100. Alternatively HDAC 10 and 11 (BPS Biosciences) were optimized for HDAC concentration using the HDAC-Glo™ I/II Assay and Screening System (Promega). Following optimization each HDAC was run following the Promega protocol in black-sided clear-bottomed 96 well plates in triplicates with same treatments listed above (PerkinElmer). Luminescence was read 30 minutes after HDAC-Glo™I/II reagent was added using the Synergy HI hybrid reader (BioTek) and Gen5 software (Bio-Tek). […] To calculate percent activity, the average of blank wells was subtracted from all treatment groups. The relative mean of activity of the HDAC being measured was determined and all wells that received treatment were divided this average, to give a percentage of activity.
(§2) To evaluate the effect of the compounds on specific HDACs, their activity was assessed with purified HDAC enzymes from all classes I, II, and IV, as well as a select member of HDAC class III (SIRT1). HDACs 1-9 and SIRT1 were evaluated using HDAC Fluorogenic Assay Kits (BPS Biosciences) following the manufacturer's recommendations. Compound treatment started at 5 μM and was two-fold diluted to a concentration 0.02 μM. […] The assays were measured using the Synergy HI hybrid reader (BioTek) and Gen5 software (Bio-Tek). […] To calculate the fold change in HDAC activity, the values from each treated well were divided by the relative mean of activity of the specific HDAC being measured.

A further test addresses T2, HDAC9 (Homo sapiens, UniProt Q9UKV0).
T2 construct: purchased BPS Biosciences
Kind of test: Individualized HDAC assay, HDAC9. Format: biochemical. The following applies: purified enzyme, 5 to 0.02 μM. The procedure: as §1, §2

T2 sequence (Q9UKV0 whole entry): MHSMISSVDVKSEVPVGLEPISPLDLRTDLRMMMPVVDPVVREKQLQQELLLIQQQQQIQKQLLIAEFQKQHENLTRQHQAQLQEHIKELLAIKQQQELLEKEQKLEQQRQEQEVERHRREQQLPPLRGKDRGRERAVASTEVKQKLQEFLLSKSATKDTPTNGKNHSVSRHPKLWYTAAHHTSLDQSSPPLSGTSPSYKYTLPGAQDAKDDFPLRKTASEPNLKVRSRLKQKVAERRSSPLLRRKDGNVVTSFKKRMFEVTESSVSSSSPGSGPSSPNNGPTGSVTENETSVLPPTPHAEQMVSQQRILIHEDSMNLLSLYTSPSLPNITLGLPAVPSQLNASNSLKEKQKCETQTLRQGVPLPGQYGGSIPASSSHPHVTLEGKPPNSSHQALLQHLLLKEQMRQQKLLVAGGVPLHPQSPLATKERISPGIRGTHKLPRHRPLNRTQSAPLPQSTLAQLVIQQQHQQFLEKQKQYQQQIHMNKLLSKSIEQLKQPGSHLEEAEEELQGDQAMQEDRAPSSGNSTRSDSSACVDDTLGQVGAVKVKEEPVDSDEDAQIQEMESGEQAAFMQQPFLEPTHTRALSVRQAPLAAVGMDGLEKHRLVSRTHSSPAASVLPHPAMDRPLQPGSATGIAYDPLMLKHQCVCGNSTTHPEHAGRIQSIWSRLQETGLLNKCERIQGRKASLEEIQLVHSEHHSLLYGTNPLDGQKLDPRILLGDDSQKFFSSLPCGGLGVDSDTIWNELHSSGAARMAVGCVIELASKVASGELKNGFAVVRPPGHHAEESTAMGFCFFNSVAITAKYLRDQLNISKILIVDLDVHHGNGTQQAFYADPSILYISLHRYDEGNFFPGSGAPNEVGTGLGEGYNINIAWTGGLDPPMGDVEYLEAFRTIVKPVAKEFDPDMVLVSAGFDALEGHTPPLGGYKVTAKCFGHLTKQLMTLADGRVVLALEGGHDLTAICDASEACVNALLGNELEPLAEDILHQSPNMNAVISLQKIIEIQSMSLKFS

Consider `CC(C)=CCCCc1ccc(C)cc1O` [P02-113], for which the HDAC6 activity entry at HDAC6 is “no change in activity; also recorded: did not affect the activity; also recorded: unaffected”. Further, the HDAC9 activity result on HDAC9 was “no change in activity; also recorded: did not affect the activity; also recorded: unaffected”.

With `COc1ccc(C(C)CCC=C(C)C)c(O)c1` (stereo not drawn) [P03-97-1], the HDAC6 activity entry on HDAC6 was “no change in activity; also recorded: unaffected”; at HDAC6 (listed as PO-3-97-1), “did not affect the activity”. The values for the HDAC9 activity result on HDAC9 and at HDAC9 (listed as PO-3-97-1) were “no change in activity; also recorded: unaffected” and “did not affect the activity”, respectively.
